Results from patent publication US7928098B2, “Therapeutic and/or preventive agents for a sleep disorder” (Kyowa Hakko Kirin Co., Ltd., priority 2005, dated 2011).

What was measured:
[1] = system: ddY male mice; experiment: Effect on pentobarbital sodium-induced sleeping time (loss of righting reflex); format: in vivo; details: Table 5-2, groups of seven, test compound 10 mg/kg p.o. one hour before pentobarbital-Na 25 mg/kg s.c., controls 40.00 ± 5.32 (r5) and 45.87 ± 4.17 (r12)
Protocol: The test was conducted to examine influence of Compound (I) of the present invention on pentobarbital sodium-induced sleeping time, according to the method of Iyakuhin no Kaihatsu, Vol. 9, Iyakuhin no Tansaku I, “antihypnotic”, p. 220-226, Hirokawa Shoten.
For the test, ddY male mice (19-21 g body weight; Japan SLC, Inc.) were used. All test compounds were used by suspending in distilled water (Otsuka Pharmaceutical Factory, Inc.) containing 0.5 volume/weight % methylcellulose (0.5% MC: Wako Pure Chemical Industries, Ltd.). A volume of 0.1 mL was administered per 10 g body weight of mice.
Groups of seven mice were used. To the control groups were orally administrated 0.5% MC, whereas a suspension of the test compound was orally administered to the test compound administered groups. One hour after the administration, pentobarbital sodium (pentobarbital-Na: Tokyo Chemical Industry Co., Ltd., 25 mg/kg) was administered subcutaneously. Mouse placed in a recumbent position, the mouse immediately returns to a proper upright position (this is known as righting reflex). However, the administration of pentobarbital sodium eliminated the righting reflex in the control groups. The time period in which the administration of […] eliminated the righting reflex was regarded as a sleeping time. By a measurement of time disappearing righting reflex immediately after the administration, the sleeping time was determined.

Structure (SMILES)	melting point	Sleeping time (min) Mean value ± standard deviation [1] [min]
COC(=O)Nc1nc(-c2ccco2)c(C(=O)c2ccccn2)s1 [Compound 157, Methyl N-[4-(2-furyl)-5-(pyridin-2-ylcarbonyl)thiazol-2-yl]carbamate]		9.39 ± 5.68
O=C(Nc1nc(-c2ccco2)c(C(=O)c2ccccc2)s1)c1ccncc1 [Compound 508, N-[5-Benzoyl-4-(2-furyl)thiazol-2-yl]pyridine-4-carboxamide]		14.26 ± 4.35
O=C(CN1CCOCC1)Nc1nc(-c2ccco2)c(C(=O)C2CCOCC2)s1 [Compound 463, N-[4-(2-Furyl)-5-(tetrahydropyran-4-ylcarbonyl)thiazol-2-yl]-2-morpholinoacetamide]		0.00 ± 0.00
O=C(c1sc(NC(=O)N2CCOCC2)nc1-c1ccco1)C1CCCC1 [Compound 340, N-[5-(Cyclopentylcarbonyl)-4-(2-furyl)thiazol-2-yl]morpholine-4-carboxamide]	108 to 110 °C	
O=C(CN1CCC(N2CCOCC2)CC1)Nc1nc(-c2ccco2)c(C(=O)c2ccccn2)s1 [Compound 179, N-[4-(2-Furyl)-5-(pyridin-2-ylcarbonyl)thiazol-2-yl]-2-(4-morpholinopiperidino)acetamide]	149 to 150 °C	
O=C(CN1CCC(N2CCCCC2)CC1)Nc1nc(-c2ccco2)c(C(=O)C2CCOCC2)s1 [Compound 457, N-[4-(2-Furyl)-5-(tetrahydropyran-4-ylcarbonyl)thiazol-2-yl]-2-(4-piperidinopiperidino)acetamide]	177 to 179 °C	
Cc1cc(C(=O)Nc2nc(-c3ccco3)c(C(=O)c3ccccn3)s2)no1 [Compound 151, N-[4-(2-Furyl)-5-(pyridin-2-ylcarbonyl)thiazol-2-yl]-5-methylisoxazole-3-carboxamide]	209 to 213 °C	
CC(C)(C)C(=O)c1sc(NC(=O)C2CC2)nc1-c1ccco1 [Compound 307, N-[4-(2-Furyl)-5-pivaloylthiazol-2-yl]cyclopropanecarboxamide]	133 to 134 °C	
O=C(Nc1nc(-c2ccco2)c(C(=O)c2ccccn2)s1)OC1CCC1 [Compound 159, Cyclobutyl N-[4-(2-furyl)-5-(pyridin-2-ylcarbonyl)thiazol-2-yl]carbamate]	152 to 153 °C	
CCN1CCN(CC(=O)Nc2nc(-c3ccco3)c(C(=O)c3ccccn3)s2)CC1 [Compound 181, 2-(4-Ethylpiperazin-1-yl)-N-[4-(2-furyl)-5-(pyridin-2-ylcarbonyl)thiazol-2-yl]acetamide]	142 to 144 °C	
O=C(c1ccccn1)c1sc(NC(=O)C2CCC2)nc1-c1ccco1 [Compound 101, N-[4-(2-Furyl)-5-(pyridin-2-ylcarbonyl)thiazol-2-yl]cyclobutanecarboxamide]	165 to 170 °C	
COCCNC(=O)Nc1nc(-c2ccco2)c(C(=O)c2ccccn2)s1 [Compound 168, N-[4-(2-Furyl)-5-(pyridin-2-ylcarbonyl)thiazol-2-yl]-N′-(2-methoxyethyl)urea]	150 to 151 °C	
CCN(CC)C(=O)C1CCCN(CC(=O)Nc2nc(-c3ccco3)c(C(=O)c3ccccn3)s2)C1.Cl (stereo not drawn)	180 to 185 °C	
COCC(=O)Nc1nc(-c2ccco2)c(C(=O)C2CCOCC2)s1 [Compound 435, N-[4-(2-Furyl)-5-(tetrahydropyran-4-ylcarbonyl)thiazol-2-yl]-2-methoxyacetamide]	148 to 149 °C	
O=C(Nc1nc(-c2ccco2)c(C(=O)C2CCOCC2)s1)c1cccc2c1OC(F)(F)O2 [Compound 402, 2,2-Difluoro-N-[4-(2-furyl)-5-(tetrahydropyran-4-ylcarbonyl)thiazol-2-yl]-1,3-benzodioxol-4-carboxamide]	206 to 207 °C	
Cc1ccccc1C(=O)Nc1nc(-c2ccco2)c(C(=O)C2CCOCC2)s1 [Compound 363, N-[4-(2-Furyl)-5-(tetrahydropyran-4-ylcarbonyl)thiazol-2-yl]-2-methylbenzamide]	204 to 206 °C	
O=C(Nc1nc(-c2ccco2)c(C(=O)c2ccccn2)s1)c1ccc2c(c1)OCCO2 [Compound 118, N-[4-(2-Furyl)-5-(pyridin-2-ylcarbonyl)thiazol-2-yl]-1,4-benzodioxane-6-carboxamide]	189 to 191 °C	
CCOC(=O)Nc1nc(-c2ccco2)c(C(=O)c2ccccn2)s1 [Compound 158, Ethyl N-[4-(2-furyl)-5-(pyridin-2-ylcarbonyl)thiazol-2-yl]carbamate]	158 to 159 °C	
O=C(c1ccccn1)c1sc(NC(=O)C2CCN(Cc3cccnc3)CC2)nc1-c1ccco1 [Compound 105, N-[4-(2-Furyl)-5-(pyridin-2-ylcarbonyl)thiazol-2-yl]-1-(pyridin-3-ylmethyl)piperidine-4-carboxamide]	208 to 209 °C	
CCOCC(=O)Nc1nc(-c2ccco2)c(C(=O)C2CCOCC2)s1 [Compound 437, 2-Ethoxy-N-[4-(2-furyl)-5-(tetrahydropyran-4-ylcarbonyl)-thiazol-2-yl]acetamide]	121 to 126 °C	
Cn1cc(C(=O)Nc2nc(-c3ccco3)c(C(=O)C3CCOCC3)s2)cn1 [Compound 424, N-[4-(2-Furyl)-5-(tetrahydropyran-4-ylcarbonyl)thiazol-2-yl]-1-methylpyrazole-4-carboxamide]	243 to 247 °C	

Further lines, with some results ahead:

melting point	Structure (SMILES)	Sleeping time (min) Mean value ± standard deviation [1] [min]
187 to 188 °C	Cc1cc(C(=O)Nc2nc(-c3ccco3)c(C(=O)c3ccccn3)s2)ccn1 [Compound 120, N-[4-(2-Furyl)-5-(pyridin-2-ylcarbonyl)thiazol-2-yl]-2-methylpyridine-4-carboxamide]	
165 to 166 °C	COc1cccc(C(=O)Nc2nc(-c3ccco3)c(C(=O)c3ccccn3)s2)c1 [Compound 109, N-[4-(2-Furyl)-5-(pyridin-2-ylcarbonyl)thiazol-2-yl]-3-methoxybenzamide]	
261 to 265 °C	Cc1ccc(C(=O)c2sc(NC(=O)c3ccc(C#N)cc3)nc2-c2ccco2)cn1 [Compound 221, 4-Cyano-N-[4-(2-furyl)-5-(2-methylpyridin-5-ylcarbonyl)thiazol-2-yl]benzamide]	
235 to 236 °C	O=C(Nc1nc(-c2ccco2)c(C(=O)c2ccccn2)s1)c1ccc2c(c1)OCO2 [Compound 117, N-[4-(2-Furyl)-5-(pyridin-2-ylcarbonyl)thiazol-2-yl]-3,4-methylenedioxybenzamide]	
180 to 187 °C	COC1CCC(C(=O)c2sc(NC(=O)c3ccncc3)nc2-c2ccco2)CC1 (stereo not drawn) [Compound 347, N-[4-(2-Furyl)-5-(4-methoxycyclohexylcarbonyl)thiazol-2-yl]pyridine-4-carboxamide]	
186 to 187 °C	Cc1ncccc1C(=O)Nc1nc(-c2ccco2)c(C(=O)c2ccccn2)s1 [Compound 129, N-[4-(2-Furyl)-5-(pyridin-2-ylcarbonyl)thiazol-2-yl]-2-methylpyridine-3-carboxamide]	
269 to 270 °C	O=C(Nc1nc(-c2ccco2)c(C(=O)c2ccccn2)s1)c1ccn(Cc2ccccc2)c(=O)c1 [Compound 140, 1-Benzyl-N-[4-(2-furyl)-5-(pyridin-2-ylcarbonyl)thiazol-2-yl]-2-oxo-1,2-dihydropyridine-4-carboxamide]	
206 to 207 °C	O=C(Nc1nc(-c2ccco2)c(C(=O)c2ccccn2)s1)c1ccncc1Cl [Compound 123, 3-Chloro-N-[4-(2-furyl)-5-(pyridin-2-ylcarbonyl)thiazol-2-yl]pyridine-4-carboxamide]	
227 to 235 °C (dec.)	O=C(Nc1nc(-c2ccco2)c(C(=O)C2CCC2)s1)c1ccncc1 [Compound 330, N-[5-(Cyclobutylcarbonyl)-4-(2-furyl)thiazol-2-yl]pyridine-4-carboxamide]	
228 to 240 °C	O=C(Nc1nc(-c2ccco2)c(C(=O)c2nccs2)s1)c1ccncc1 [Compound 255, N-[4-(2-Furyl)-5-(thiazol-2-ylcarbonyl)thiazol-2-yl]pyridine-4-carboxamide]	
280 to 282 °C	Cn1ccc(-c2sc(NC(=O)c3ccncc3)nc2-c2ccco2)cc1=O [Compound 37, N-[4-(2-Furyl)-5-(1-methyl-2-oxo-1,2-dihydropyridin-4-yl)thiazol-2-yl]pyridine-4-carboxamide]	
229 to 231 °C	Cc1ccc(C(=O)c2sc(NC(=O)c3ccoc3)nc2-c2ccco2)cn1 [Compound 223, N-[4-(2-Furyl)-5-(2-methylpyridin-5-ylcarbonyl)thiazol-2-yl]furan-3-carboxamide]	
183 to 186 °C	Cc1occc1C(=O)Nc1nc(-c2ccco2)c(C(=O)c2ccccn2)s1 [Compound 147, N-[4-(2-Furyl)-5-(pyridin-2-ylcarbonyl)thiazol-2-yl]-2-methylfuran-3-carboxamide]	
255 to 257 °C	Cc1ccc(C(=O)c2sc(NC(=O)c3ccncc3)nc2-c2ccco2)nc1 [Compound 202, N-[4-(2-Furyl)-5-(5-methylpyridin-2-ylcarbonyl)thiazol-2-yl]pyridine-4-carboxamide]	
179 to 182 °C	CC(C)C(=O)c1sc(NC(=O)c2ccncc2)nc1-c1ccco1 [Compound 300, N-[4-(2-Furyl)-5-isobutyrylthiazol-2-yl]pyridine-4-carboxamide]	
